Test: xn = mol fraction of the nth substance listed
Settings: 101 kPa, Liquid; for viscosity: Concentric cylinders viscometry; for mass density: Vibrating tube method

COC(C)(C)C [2-methoxy-2-methylpropane] + CC(C)O
Settings	mass density, 303.15 K [kg/m3]	mass density, 308.15 K [kg/m3]	viscosity, 303.15 K [mPa·s]	viscosity, 308.15 K [mPa·s]
x1 = 0.0093	776.34	771.97	1.716	1.488
x1 = 0.0206	775.62	771.24	1.661	1.444
x1 = 0.0305	775.01	770.65	1.606	1.399
x1 = 0.0398	774.43	770.06	1.547	1.35
x1 = 0.0499	773.82	769.37	1.496	1.307
x1 = 0.0601	773.15	768.84	1.443	1.264
x1 = 0.0702	772.55	768.22	1.395	1.226
x1 = 0.0799	772	767.62	1.348	1.186
x1 = 0.0914	771.45	766.96	1.299	1.145
x1 = 0.1009	770.89	766.39	1.26	1.112
x1 = 0.1493	768.12	763.55	1.093	0.9806
x1 = 0.2014	765.24	760.59	0.9479	0.8473
x1 = 0.244	762.82	758.12	0.8652	0.7741
x1 = 0.2863	760.69	755.94	0.7635	0.6933
x1 = 0.3081	759.55	754.77	0.7251	0.6588
x1 = 0.351	757.3	752.47	0.6639	0.6054
x1 = 0.3995	754.91	750.02	0.6057	0.5521
x1 = 0.4516	752.43	747.48	0.5514	0.501
x1 = 0.4999	750.22	745.22	0.5139	0.4673
x1 = 0.5497	748.01	742.97	0.4738	0.4345
x1 = 0.5994	745.87	740.79	0.4395	0.4032
x1 = 0.6493	743.75	738.63	0.4129	0.3822
x1 = 0.6993	741.69	736.5	0.3938	0.3678
x1 = 0.7499	739.62	734.4	0.3695	0.3487
x1 = 0.8015	737.6	732.34	0.352	0.3323
x1 = 0.8509	735.7	730.41	0.3397	0.3136
x1 = 0.8997	733.84	728.52	0.3193	0.303
x1 = 0.9089	733.49	728.17	0.3254	0.298
x1 = 0.9191	733.11	727.78	0.3152	0.2968
x1 = 0.9294	732.74	727.41	0.3121	0.2986
x1 = 0.9401	732.34	727.01	0.307	0.293
x1 = 0.9512	731.91	726.58	0.3045	0.2959
x1 = 0.9587	731.64	726.3	0.3021	0.2906
x1 = 0.97	731.24	725.88	0.302	0.2819
x1 = 0.9777	730.94	725.59	0.2983	0.2804
x1 = 0.9897	730.5	725.16	0.2943	0.283

— the NIST ThermoML archive (doi:10.1016/j.jct.2011.02.018)
